Measured values as given in patent US20240336574A1 (LATIGO BIOTHERAPEUTICS, INC., priority 2021, published 2024).
pIC50: −log10 of the molar value. Where two headings read alike, the source gives them in different places.

Target: T1, recombinant human NaV1.8 stably transfected HEK cells (Homo sapiens, UniProt Q9Y5Y9)
T1 construct: expressed in transfected cells; host or cells: HEK cells, stably transfected
Assay: Compound profiling on NaV1.8, human NaV1.8 cell line, SyncroPatch384PE automated patch clamp assay (Example 102, first set of compounds, Table 16)
Type: cell-based
Conditions: human NaV1.8 HEK cells, Table 16 (first set of compounds)
Method: Compound Profiling on NaV1.8—Human NaV1.8 Cell Line—SyncroPatch384PE Assay
Compounds were tested on recombinant human NaV1.8 stably transfected HEK cells using the SyncroPatch384PE system, an automated patch clamp device. Cells were cultured at 37° C./5% CO2 in DMEM medium supplemented with GlutaMAX I, NEAA 1%, FBS 10% and seeded in T175 flasks. Cells were cultured at 30° C. one day prior to recording sodium currents. On the day of the recordings, cells were detached with 0.05% Trypsin-EDTA, resuspended in serum free DMEM medium and placed into the SyncroPatch384PE 6° C. pre-cooled cell hotel and shaken at 200 rpm. Intracellular solution (IC) contained, in mM: 10, CsCl; 110, CsF; 20, EGTA; 10, HEPES. Extracellular solution (EC) contained, in mM: 140, NaCl; 4, KCl; 5, Glucose; 10, HEPES; 2, CaCl2; 1, MgCl2. Washing solution contained, in mM: 40, NMDG; 100, NaCl; 4, KCl; 10, Glucose; 10, HEPES; 5, CaCl2; 1, MgCl2.
Compounds were tested in triplicate in 0.1% DMSO and 0.030% Pluronic Acid. Compounds were diluted 1:3 in EC solution to create a 10-point concentration response curve, spanning a final concentration range from 20-0.001 μM in the assay plate. Each plate contained tetracaine and another tool compound as positive controls. Up to 8 compounds were tested on one plate. 250 μM tetracaine and 0.1% DMSO were used as high and low controls, respectively. Whole cell patch clamp recordings were conducted according to Nanion's standard procedure for SyncroPatch384PE®. Cells were held at a holding potential of −120 mV. A depolarization step to 10 mV for 30 ms was applied (P1 measurement), followed by a hyperpolarization step to −100 mV for 100 ms. An inactivation step at −40 mV for 10 sec was applied before stepping to −100 mV for 20 ms, followed by a step to 10 mV for 30 ms (P2 measurement) and then back to −100 mV for 30 ms. Sweep interval was 15 sec with a sampling rate of 10 kHz. Following establishment of the whole-cell configuration in EC, two washing steps with reference buffer were performed to stabilize the baseline. Compounds were then applied by the SynchroPatch into each well and the current was recorded for five minutes in EC, followed by application of tetracaine to achieve full block at the end of the experiment. The potency of the compounds was assessed on two read-outs, resting state block (P1 measurement) or inactivated state block (P2 measurement) to obtain IC50 values. Values were normalized to high (tetracaine) and low (DMSO) controls. The IC50 values are listed in Table 16 as follows: “A” represents an IC50 less than or equal to 20 nM, “B” represents an IC50 greater than 20 nM to less than or equal to 40 nM, “C” represents an IC50 greater than 40 nM to less than or equal to 200 nM, “D” represents an IC50 greater than 200 nM to less than or equal to 500 nM.

[1] = inactivated state block (P2 measurement), read-out: P2IC50
[2] = resting state block (P1 measurement), read-out: P1IC50

T1 sequence (Q9Y5Y9 whole entry): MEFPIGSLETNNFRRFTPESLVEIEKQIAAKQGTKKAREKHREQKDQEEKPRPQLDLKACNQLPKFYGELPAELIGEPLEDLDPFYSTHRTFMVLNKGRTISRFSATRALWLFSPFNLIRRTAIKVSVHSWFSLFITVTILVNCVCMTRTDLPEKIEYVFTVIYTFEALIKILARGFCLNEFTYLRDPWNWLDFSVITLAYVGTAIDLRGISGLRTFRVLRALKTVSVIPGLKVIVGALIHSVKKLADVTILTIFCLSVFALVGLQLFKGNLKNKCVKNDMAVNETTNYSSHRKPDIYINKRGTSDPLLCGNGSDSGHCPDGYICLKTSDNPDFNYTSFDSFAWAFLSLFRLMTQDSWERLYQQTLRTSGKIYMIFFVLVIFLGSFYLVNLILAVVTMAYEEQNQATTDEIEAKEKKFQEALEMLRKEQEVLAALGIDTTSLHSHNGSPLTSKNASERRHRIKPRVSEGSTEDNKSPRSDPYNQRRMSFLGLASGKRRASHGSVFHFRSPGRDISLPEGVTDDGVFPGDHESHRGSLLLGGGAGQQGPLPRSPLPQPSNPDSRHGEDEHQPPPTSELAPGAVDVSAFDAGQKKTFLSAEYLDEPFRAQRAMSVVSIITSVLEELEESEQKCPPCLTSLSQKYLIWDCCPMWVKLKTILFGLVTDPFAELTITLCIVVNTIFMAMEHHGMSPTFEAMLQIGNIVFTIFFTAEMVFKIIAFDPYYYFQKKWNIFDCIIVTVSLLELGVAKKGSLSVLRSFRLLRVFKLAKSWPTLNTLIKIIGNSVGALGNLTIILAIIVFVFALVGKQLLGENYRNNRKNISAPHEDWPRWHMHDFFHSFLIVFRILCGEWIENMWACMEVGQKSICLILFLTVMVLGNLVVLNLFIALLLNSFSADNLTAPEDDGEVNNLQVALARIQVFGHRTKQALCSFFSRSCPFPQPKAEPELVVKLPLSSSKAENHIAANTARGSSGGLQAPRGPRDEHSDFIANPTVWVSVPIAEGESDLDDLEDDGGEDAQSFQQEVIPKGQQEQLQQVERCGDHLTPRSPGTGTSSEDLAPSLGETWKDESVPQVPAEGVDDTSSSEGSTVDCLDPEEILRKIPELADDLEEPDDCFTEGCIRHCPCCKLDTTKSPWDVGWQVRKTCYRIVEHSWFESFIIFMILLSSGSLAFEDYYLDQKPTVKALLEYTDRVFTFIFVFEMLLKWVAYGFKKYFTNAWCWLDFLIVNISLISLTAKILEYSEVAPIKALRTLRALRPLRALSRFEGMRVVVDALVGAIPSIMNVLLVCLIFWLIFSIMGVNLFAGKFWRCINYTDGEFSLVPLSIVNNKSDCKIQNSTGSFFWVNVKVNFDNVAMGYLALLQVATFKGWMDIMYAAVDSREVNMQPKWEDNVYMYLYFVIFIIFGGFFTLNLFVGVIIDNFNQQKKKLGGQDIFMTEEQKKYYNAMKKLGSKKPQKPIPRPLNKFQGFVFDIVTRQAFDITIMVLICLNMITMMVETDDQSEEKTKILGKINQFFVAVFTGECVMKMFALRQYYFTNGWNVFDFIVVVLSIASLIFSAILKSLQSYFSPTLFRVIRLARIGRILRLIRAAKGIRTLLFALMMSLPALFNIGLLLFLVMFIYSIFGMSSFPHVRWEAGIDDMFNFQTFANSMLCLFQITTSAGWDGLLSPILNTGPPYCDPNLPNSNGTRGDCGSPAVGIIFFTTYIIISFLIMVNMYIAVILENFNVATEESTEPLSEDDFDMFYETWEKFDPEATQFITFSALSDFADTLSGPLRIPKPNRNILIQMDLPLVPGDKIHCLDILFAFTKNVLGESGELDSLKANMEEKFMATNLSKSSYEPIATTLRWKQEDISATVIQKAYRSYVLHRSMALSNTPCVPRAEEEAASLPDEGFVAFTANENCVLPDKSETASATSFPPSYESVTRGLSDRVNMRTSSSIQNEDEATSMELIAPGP

Row | Structure (SMILES) | pIC50 [1] | pIC50 [2]
1 | Cc1c(C(F)(F)F)nnc(Oc2ccc(OC(C)C)c(F)c2F)c1C(=O)Nc1cccc(S(C)(=N)=O)c1 (single isomer, unassigned) [Compound 1502, 3-(2,3-difluoro-4-isopropoxyphenoxy)-5-methyl-N-(3-(S-methylsulfonimidoyl)phenyl)-6-(trifluoromethyl)pyridazine-4-carboxamide] | ≥ 7.70 | ≥ 7.70
2 | COc1ccc(Oc2nnc(C(F)(F)F)c(C)c2C(=O)Nc2cccc(S(C)(=N)=O)c2)c(C)c1F (single isomer, unassigned) [Compound 1505, 3-(3-fluoro-4-methoxy-2-methylphenoxy)-N-{3-[imino(methyl)oxo-λ^6-sulfanyl]phenyl}-5-methyl-6-(trifluoromethyl)pyridazine-4-carboxamide] | ≥ 7.70 | ≥ 7.70
3 | COc1ccc(Oc2nnc(C(F)(F)F)c(C)c2C(=O)Nc2cccc(S(C)(=N)=O)c2)c(C)n1 (single isomer, unassigned) [Compound 1508, N-{3-[imino(methyl)oxo-λ^6-sulfanyl]phenyl}-3-[(6-methoxy-2-methylpyridin-3-yl)oxy]-5-methyl-6-(trifluoromethyl)pyridazine-4-carboxamide] | 6.70 to 7.40 | 6.70 to 7.40
4 | Cc1c(C(F)(F)F)nnc(Oc2ccc(OC(F)F)c(F)c2F)c1C(=O)Nc1cccc(S(C)(=N)=O)c1 (single isomer, unassigned) [Compound 1511, 3-[4-(difluoromethoxy)-2,3-difluorophenoxy]-N-{3-[imino(methyl)oxo-λ^6-sulfanyl]phenyl}-5-methyl-6-(trifluoromethyl)pyridazine-4-carboxamide] | ≥ 7.70 | ≥ 7.70
5 | Cc1c(C(F)(F)F)nnc(Oc2ccc(OC(F)F)c(F)c2F)c1C(=O)Nc1cccc(S(C)(=N)=O)c1 (single isomer, unassigned) [Compound 1512, 3-[4-(difluoromethoxy)-2,3-difluorophenoxy]-N-{3-[imino(methyl)oxo-λ^6-sulfanyl]phenyl}-5-methyl-6-(trifluoromethyl)pyridazine-4-carboxamide] |  | ≥ 7.70
6 | Cc1nc(F)ccc1Oc1ncc(C(F)(F)F)cc1C(=O)Nc1cccc([S@](C)(=N)=O)c1 (single isomer, unassigned) [Compound 1593] | ≥ 7.70 | ≥ 7.70
7 | Cc1nc(F)ccc1Oc1ncc(C(F)(F)F)cc1C(=O)Nc1cccc([S@@](C)(=N)=O)c1 (single isomer, unassigned) [Compound 1594] | 6.70 to 7.40 | 6.70 to 7.40
8 | CS(=N)(=O)c1cccc(NC(=O)c2cc(C(F)(F)F)cnc2Oc2cccnc2OC(F)(F)F)c1 (single isomer, unassigned) [Compound 1642] | ≥ 7.70 | ≥ 7.70
9 | CS(=N)(=O)c1cccc(NC(=O)c2cc(C(F)(F)F)cnc2Oc2cccnc2OC(F)(F)F)c1 (single isomer, unassigned) [Compound 1643] |  | ≥ 7.70
10 | Cc1c(Oc2ncc(C(F)(F)F)cc2C(=O)Nc2cccc(S(C)(=N)=O)c2)ccc(OC(F)(F)F)c1F (single isomer, unassigned) [Compound 1714] | ≥ 7.70 | ≥ 7.70
11 | Cc1c(Oc2ncc(C(F)(F)F)cc2C(=O)Nc2cccc(S(C)(=N)=O)c2)ccc(OC(F)(F)F)c1F (single isomer, unassigned) [Compound 1715] |  | ≥ 7.70
12 | COc1cc(C#N)ccc1Oc1nnc(C(F)(F)F)c(C)c1C(=O)Nc1cccc(S(C)(=O)=O)c1 [Compound 4] | ≥ 7.70 | ≥ 7.70
13 | CSc1cccc(NC(=O)c2c(Oc3ccc(C#N)cc3C)nnc(C(F)(F)F)c2C)c1 [Compound 14, 3-(4-Cyano-2-methylphenoxy)-5-methyl-N-[3-(methylsulfanyl)phenyl]-6-(trifluoromethyl)pyridazine-4-carboxamide] | 6.30 to 6.70 | 6.30 to 6.70
14 | Cc1cc(F)ccc1Oc1nnc(C(F)(F)F)c(C)c1C(=O)Nc1cccc(S(C)(=N)=O)c1 (centres unmarked) [Compound 20, 3-(4-Fluoro-2-methylphenoxy)-5-methyl-N-(3-(S-methylsulfonimidoyl)phenyl)-6-(trifluoromethyl)pyridazine-4-carboxamide] | 7.40 to 7.70 | ≥ 7.70
15 | Cc1c(C(F)(F)F)nnc(Oc2ccc(C#N)cc2)c1C(=O)Nc1cccc(S(C)(=N)=O)c1 (centres unmarked) [Compound 21] | 6.70 to 7.40 | 7.40 to 7.70
16 | Cc1c(C(F)(F)F)nnc(Oc2ccc(Cl)cc2)c1C(=O)Nc1cccc(S(C)(=N)=O)c1 (centres unmarked) [Compound 22] | 6.70 to 7.40 | 7.40 to 7.70
17 | COc1c(Oc2nnc(C(F)(F)F)c(C)c2C(=O)Nc2cccc(S(C)(=N)=O)c2)ccc(F)c1F (centres unmarked) [Compound 23] | 7.40 to 7.70 | ≥ 7.70
18 | COc1cc(C#N)ccc1Oc1nnc(C(F)(F)F)c(C)c1C(=O)Nc1cccc(S(C)(=N)=O)c1 (centres unmarked) [Compound 25] | ≥ 7.70 | ≥ 7.70
19 | Cc1cccc(Cl)c1Oc1nnc(C(F)(F)F)c(C)c1C(=O)Nc1ccc(C(N)=O)cc1 [Compound 1401] | 6.30 to 6.70 | 6.30 to 6.70

Row | Structure (SMILES) | pIC50 [1] | pIC50 [2]
20 | Cc1cc(Br)ccc1Oc1nnc(C(F)(F)F)c(C)c1C(=O)Nc1ccc(C(N)=O)cc1 [Compound 1402] | 7.40 to 7.70 | 7.40 to 7.70
21 | COc1cc(Cl)ccc1Oc1nnc(C(F)(F)F)c(C)c1C(=O)Nc1ccc(C(N)=O)cc1 [Compound 1403] | 7.40 to 7.70 | 7.40 to 7.70
22 | Cc1c(C(F)(F)F)nnc(Oc2ccc(Cl)cc2F)c1C(=O)Nc1ccc(C(N)=O)cc1 [Compound 1404] | 6.70 to 7.40 | 6.70 to 7.40
23 | COc1cc(C#N)ccc1Oc1nnc(C(F)(F)F)c(C)c1C(=O)Nc1ccc(C(N)=O)cc1 [Compound 1405] | ≥ 7.70 | ≥ 7.70
24 | Cc1cc(F)ccc1Oc1nnc(C(F)(F)F)c(C)c1C(=O)Nc1cccc(C(N)=O)c1 [Compound 1406] | 6.70 to 7.40 | 6.70 to 7.40
25 | Cc1cc(F)ccc1Oc1nnc(C(F)(F)F)c(C)c1C(=O)Nc1cc(C(N)=O)cc(S(C)(=O)=O)c1 [Compound 1407] | 6.30 to 6.70 | 6.30 to 6.70
26 | Cc1cc(F)ccc1Oc1nnc(C(F)(F)F)c(C)c1C(=O)Nc1ccnc(C(N)=O)c1 [Compound 1408] | 6.70 to 7.40 | 6.70 to 7.40
27 | Cc1c(C(F)(F)F)nnc(Oc2ccc(OC(C)C)c(F)c2F)c1C(=O)Nc1cccc(C(N)=O)c1 [Compound 1409] | ≥ 7.70 | ≥ 7.70
28 | Cc1c(C(F)(F)F)nnc(Oc2ccc(OC(C)C)c(F)c2F)c1C(=O)Nc1ccnnc1 [Compound 1412] | ≥ 7.70 | ≥ 7.70
29 | COc1cc(F)ccc1Oc1nnc(C(F)(F)F)c(C)c1C(=O)Nc1ccc(C(N)=O)cc1 [Compound 1415] | ≥ 7.70 | ≥ 7.70
30 | Cc1cc(F)ccc1Oc1nnc(C(F)(F)F)c(C)c1C(=O)Nc1ccc(C(N)=O)cc1 [Compound 1416] | 6.70 to 7.40 | 6.70 to 7.40
31 | COc1c(Oc2nnc3c(c2C(=O)Nc2cccc(C(N)=O)c2)CCC3)ccc(F)c1F [Compound 1417] | 6.30 to 6.70 | 6.30 to 6.70
32 | COc1cc(C#N)ccc1Oc1nnc(C(F)(F)F)c(C)c1C(=O)Nc1cccc(S(N)(=O)=O)c1 [Compound 1418] | ≥ 7.70 | ≥ 7.70
33 | Cc1c(C(F)(F)F)nnc(Oc2ccc(OC(F)(F)F)c(F)c2F)c1C(=O)Nc1cccc(S(C)(=O)=O)c1 [Compound 1419] | ≥ 7.70 | ≥ 7.70
34 | Cc1ccc(Oc2nnc(C(F)(F)F)c(C)c2C(=O)Nc2cccc(S(C)(=O)=O)c2)c(C)n1 [Compound 1420] | 6.30 to 6.70 | 6.30 to 6.70
35 | Cc1c(Oc2nnc(C(F)(F)F)c(C)c2C(=O)Nc2cccc(S(C)(=O)=O)c2)ccc(Cl)c1F [Compound 1421] | ≥ 7.70 | ≥ 7.70
36 | Cc1c(C(F)(F)F)nnc(Oc2ccc(OC(F)F)c(F)c2F)c1C(=O)Nc1cccc(S(C)(=O)=O)c1 [Compound 1422] | ≥ 7.70 | ≥ 7.70
37 | Cc1c(C(F)(F)F)nnc(Oc2c(F)cc(OC(F)(F)F)cc2F)c1C(=O)Nc1cccc(S(C)(=O)=O)c1 [Compound 1423] | 6.30 to 6.70 | 6.30 to 6.70
